Source: PMC6662714, “High-throughput identification of peptide agonists against GPCRs by co-culture of mammalian reporter cells and peptide-secreting yeast cells using droplet microfluidics” (Scientific Reports, 2019)

How the values were obtained:
[1] = test system: human GLP1R (hGLP1R); assay: Functional cell-based assay in droplets (droplet microfluidics), hGLP1R/LacZ-293; conditions: 6 h, Fig. 4b; for fluorescence intensity of droplets: DMEM, 50 µM CMFDG, 30 °C, at least 70 droplets
Description: A single-inlet microfluidic device was designed according to previous reports[39],[40] (Fig. S1). In brief, polydimethylsiloxane (PDMS, Sylgard 184, Dow Corning Corp, Midland, MI, USA) and its cross-linker were mixed at a ratio of 10:1 (w/w), degassed, poured onto a master mold, and cured. The cured PDMS was peeled from the mold and punched with 0.75 mm biopsy punch (World Precision Instruments, Sarasota, FL, USA). The PDMS slab was bonded to a glass slide by plasma treatment (Plasma Cleaner PDG-32G; Harrick Scientific, Pleasantville, NY, USA), and baked for at least 30 min at 70 °C. The microfluidics device, an air compressor, Mitos P-Pump Basic (Dolomite, Charleston, MA, USA) were connected, and the pressure was set to be about 150 mbar for aqueous phase and about 300 mbar for oil phase. To generate droplets, cell suspension and a carrier phase (FC40 containing 5% (v/v) of the surfactant Pico-Surf1, Dolomite), were pumped into the cross-junction.
As a proof-of-principle experiment, hGLP1R/LacZ-293 was suspended at 5.0 × 10^6 cells/mL in the following media: DMEM, DMEM containing authentic Ex4, DMEM containing WT S. cerevisiae (Yeast-WT), or DMEM containing Ex4-secreting S. cerevisiae (Yeast-Ex4). The concentration of yeast cells was set to be 9.1 × 10^6 cells/mL. CMFDG was added in the media to realize a concentration of 50 µM. After encapsulation, the droplets were incubated at 30 °C for 6 h. Fluorescence intensity of each droplet was calculated by image analysis under a confocal laser scanning fluorescence microscope.

[2] = test system: human GLP1R (hGLP1R); assay: Functional cell-based assay, adherent hGLP1R/NLuc-293 reporter cells (NanoLuc luminescence); conditions: DMEM, 37 °C, 12 h
Description: (§1) To construct a reporter cell line that constitutively produces human GLP1R (hGLP1R) and inducibily secretes NanoLuc in response to the activation of hGLP1R, pIRES-hGLP1R, and pCRE-NLuc[13], were co-transfected in HEK293 cells (European Collection of Cell Culture, Salisbury, UK) using Xfect™ (Clontech Laboratries, Inc., Mountain View, CA, USA). The transfected cells were cultured in Dulbecco’s Modified Eagle Medium (DMEM) (Nacalai Tesque, Kyoto, Japan) containing 10% FBS (GE Healthcare, Little Chalfont, UK), 1% penicillin-streptomycin (Sigma-Aldrich, St. Louis, MO, USA), 400 µg/mL G418 (Nacalai Tesque), and 0.1 µg/mL puromycin (Wako Pure Chemical Industries, Osaka, Japan). […]
To perform a functional assay using the adherent hGLP1R/NLuc-293 cell line, hGLP1R/NLuc-293 cells were seeded at 5 × 10^3 cells/100 µL in a 96-well plate (Thermo Fisher Scientific) and cultured at 37 °C for 24 h. […] Afterwards, 50 µL luciferase substrate (Nano-Glo™ Luciferase Assay System, Promega, Fitchburg, WI, USA) was added, and luminescence intensity was measured using a Fluoroskan Ascent™ Microplate Fluorometer (Thermo Fisher Scientific).
To verify the activities of the identified Ex4 variants, we prepared variant peptides using E. coli as follows. […] The calibration curve used for quantification was obtained with standard FLAG peptides (Wako Pure Chemical Industries).

[3] = test system: human GLP1R (hGLP1R); assay: Co-culture of floating hGLP1R/LacZ-293 and ligand-secreting yeast cells; type: cell-based; conditions: co-culture with yeast cells secreting Ex4 (4.5 × 10^5 cells/50 µL) vs WT yeast, RPMI-1640, 50 µM CMFDG, 37 °C, 12 h, n = 3, Fig. 3b
Description: Saccharomyces cerevisiae BY4742 [MATα, his3Δ1, leu2Δ0, lys2Δ0, ura3Δ0] (GE Healthcare) was used for the secretion of a hGLP1R agonist, Exendin-4 (Ex4, produced by the Gila monster[31]) and randomized Ex4 variants. To construct an Ex4-secretory yeast, pULS-Ex4[13] was transformed into the BY4742 strain using the Frozen-EZ Yeast Transformation-II Kit (Zymo Research, Orange, CA, USA). Yeast cells secreting randomized Ex4 variants were constructed using gap repair cloning[34] as follows. pULS plasmid[13] was digested with EcoRI and KpnI to obtain a linear vector fragment. Insert DNA fragments encoding Ex4 genes whose two N-terminal amino acids were randomized were PCR-amplified from pULS-Ex4 using the following primers: 5′-[…]-3′ and 5′-[…]-3′. The BY4742 strains were transformed using the linear vector fragments (500 ng) and the randomized insert fragments (250 ng) for gap repair cloning. […]
Co-culture of floating hGLP1R/LacZ-293 and ligand-secreting yeast cells was carried out using the following procedure. […] Immediately after the modification, the solution was incubated in a 96-well plate at 37 °C for 12 h, and fluorescence intensity was measured.

[4] = test system: human GLP1R (hGLP1R); assay: Functional cell-based assay, adherent hGLP1R/LacZ-293 reporter cells (LacZ fluorescence); conditions: DMEM, 50 µM CMFDG, 37 °C, 12 h
Description: as §1, with “Japan). The reporter cells were selected to establish a stable cell line harboring GLP1R and secretory NanoLuc genes (hGLP1R/NLuc-293)[13].” for “Japan).”
To perform a functional assay using the adherent hGLP1R/LacZ-293 cell line, hGLP1R/LacZ-293 cells were seeded at 5 × 10^3 cells/100 µL in a 96-well plate (Thermo Fisher Scientific) and cultured at 37 °C for 24 h. […] After 12 h incubation at 37 °C, fluorescence intensity was measured using Fluoroskan Ascent™ Microplate Fluorometer.

[5] = test system: human GLP1R (hGLP1R); assay: Functional cell-based assay, floating hGLP1R/LacZ-293 cells; conditions: 30 nM authentic Ex4, floating cells 5 × 10^3 cells/50 µL, RPMI-1640, 50 µM CMFDG, 37 °C, 12 h; n = 3; Fig. 3a
Description: as §1, with “Japan). The reporter cells were selected to establish a stable cell line harboring GLP1R and secretory NanoLuc genes (hGLP1R/NLuc-293)[13]. To construct a reporter cell line that secretes LacZ in response to the activation of hGLP1R, pIRES-hGLP1R[13], and pCRE-LacZ were co-transfected in HEK293 cells, and a reporter cell line, hGLP1R/LacZ-293, was selected using a medium containing G418 and puromycin.” for “Japan).”
An assay using floating hGLP1R/LacZ-293 was carried out using the following procedure. […] Immediately after the modification, the solution was placed in a 96-well plate and incubated at 37 °C for 12 h, and fluorescence intensity was measured.

[6] = test system: GLP1R; conditions: cited from earlier work
Description: To investigate whether the activity of the peptides was not influenced by the post-translational modifications by yeast or differences in secretion efficiencies, WT Ex4 and Ex4 variants fused with an N-terminal FLAG sequence were produced using Escherichia coli. The peptides were purified using anti-FLAG resin, and reacted with enterokinase, which cleaves the peptides after the FLAG sequence to expose free N-terminal of Ex4 peptides. We added the purified WT Ex4 produced by E. coli with or without enterokinase reactions to the hGLP1R/NLuc-293 cells, and observed a significant increase in lumin ...

[7] = 30 nM authentic Ex4 vs 0 nM, mean ± SD (n = 3), two-tailed Student's t-test, Fig. 2a
[8] = culture supernatants of Ex4-secretory yeast (yeast-Ex4) vs WT yeast, n = 3, Fig. 2b

## exendin-4 [Ex4]
[1]; 30 nM authentic Ex4, 30 °C
  overlap of box plots of droplet fluorescence, "Ex4" vs "no ligand": partially overlapped
[1]; 30 nM authentic Ex4 vs no ligand, two-tailed Student's t-test
  fluorescence intensity of droplets: significant increases in fluorescence intensity
[1]; yeast cells secreting Ex4 (9.1 × 10^6 cells/mL) vs Yeast-WT
  fluorescence intensity of droplets: significant increases in fluorescence intensity
[2]; [7]
  reporter signal (NanoLuc luminescence): significant reporter signals in both lines
[2]; [8]
  reporter signal (NanoLuc luminescence): significant reporter signals in both lines
[3]
  fluorescence (LacZ reporter): significant increase in fluorescence
[4]; [7]
  reporter signal (LacZ fluorescence): significant reporter signals in both lines
[4]; [8]
  reporter signal (LacZ fluorescence): significant reporter signals in both lines
[5]
  fluorescence (LacZ reporter): significant increase in fluorescence
[6]
  agonist strength at GLP1R: very strong agonist
